# In publication PMC10281575, “PfCRT mutations conferring piperaquine resistance in falciparum malaria shape the kinetics of quinoline drug binding and transport” (PLOS Pathogens, 2023):
# Several values for one entry are separate records, joined by “and”; a condition that tells them apart may be missing. Equal values may be shown once.
# Target: T1, PfCRT^Dd2 (Plasmodium falciparum, UniProt Q8IBZ9, A220S/I356T/K76T/M74I/N326S/N75E/Q271E/R371I)
# T1 sequence (Q8IBZ9 1-424 M74I/N75E/K76T/A220S/Q271E/N326S/I356T/R371I): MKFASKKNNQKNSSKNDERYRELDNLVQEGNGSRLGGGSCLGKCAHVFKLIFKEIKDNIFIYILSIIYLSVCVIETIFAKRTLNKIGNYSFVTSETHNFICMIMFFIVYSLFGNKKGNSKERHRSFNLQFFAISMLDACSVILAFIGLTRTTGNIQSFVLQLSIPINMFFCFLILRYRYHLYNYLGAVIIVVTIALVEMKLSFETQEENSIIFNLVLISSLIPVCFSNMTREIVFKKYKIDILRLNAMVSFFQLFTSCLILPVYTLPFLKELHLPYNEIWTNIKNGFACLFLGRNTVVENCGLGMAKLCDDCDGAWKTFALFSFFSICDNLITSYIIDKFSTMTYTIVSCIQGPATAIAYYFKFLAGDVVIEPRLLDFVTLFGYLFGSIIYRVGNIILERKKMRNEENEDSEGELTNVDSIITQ
# Experiment: Competition kinetics of drug transport (radiolabeled substrate plus cold inhibitor), PfCRT^Dd2-expressing oocytes
# Format: cell-based
# Set-up: expressed in transfected cells; host or cells: Xenopus laevis oocytes injected with in vitro transcribed RNA (pSP64T)
# Details: single replicates
# Method: The experimental procedure and the data analysis were as described above.
# The difference between the two models lies in the value of α, a parameter describing how much the affinity for the substrate changes when the inhibitor is already bound, and vice versa. […] The resulting Vmax,app values and the Vmax,app/KM,app ratios were plotted as a function of the inhibitor concentration (Fig 5A).
# Drug transport assays were performed as previously described. Briefly, measurements of radiolabeled drug uptake were made over 1 h, unless otherwise specified. […] Where specified, one or more unlabeled drugs were also present at the indicated concentrations. […] The uptake assays were terminated by removing the oocytes from the reaction medium and washing them three times with 2 mL of ice-cold ND96 buffer. Each oocyte was transferred to a separate scintillation vial and lysed by the addition of 200 μL of a 5% SDS solution. The radioactivity in the sample was measured using a liquid scintillation analyser Tri-Carb 4910 TR (PerkinElmer). Water-injected oocytes were analyzed in parallel as a negative control. The buffer from each condition was measured in duplicate in parallel to each experiment to transform counts per minute into pmol of drug. Drug uptake attributable to PfCRT was determined by subtracting the background uptake from water-injected oocytes from that of PfCRT-expressing oocytes. In all cases, at least three independent experiments were performed on oocytes from different frogs, and for each condition in an experiment, measurements were made from 10 oocytes per treatment.
# The following equations were adopted from Segel (1993), and the reader is referred to that text for the assumptions made in the author’s approach in the derivation of each equation [31]. The concentration of substrate is denoted as [S1] and the concentration of the inhibiting substrate is denoted as [S2]. KS1 and KS2 are the dissociation constants for the respective substrate-protein complexes.
# Analyses of the kinetic data were performed using SigmaPlot version 13.0 and Python. The drug competition models were globally fit to the kinetic data using the least-squares method and ranked according to their corrected Akaike information criterion difference (ΔAICC) and their Akaike weight, using Python. The two top-ranked models were compared using an F-test.
# This factor reflects how much the affinity of the transporter for one drug changes when the other drug is already bound in the protein cavity. In the former model, α > 0 and α ≠ 1. In the latter model, it could be thought of as if α = 1. Because of this, discriminating between the two models also means determining the value of α. In Mixed-type (Partial) inhibition, the apparent maximal velocity (Vmax,app) is given by Eq 22, Vmax,app=Vmax(1+β[S2]/αKS2)/(1+[S2]/αKS2) (Eq 22)
# Vmax,app is the maximal rate of substrate transport at a certain inhibitor concentration. The half-maximal inhibitory concentration is given by the term in the denominator different from [S2], which in this case is αKS2. This means that by plotting Vmax,app as a function of [S2], the value of αKS2 can be derived after fitting the curve to Eq 23.
# The half-maximal inhibitory concentration derived from this hyperbolic equation is equal to KS2. By plotting Vmax,app/KM,app as a function of [S2], one can derive KS2 after fitting the curve to Eq 25. The value of α can then be calculated dividing αKS2 by KS2.
smiles,measurement,setting,value
"Clc1ccc2c(N3CCN(CCCN4CCN(c5ccnc6cc(Cl)ccc56)CC4)CC3)ccnc2c1 [PPQ, piperaquine]",PfCRTDd2-mediated PPQ transport 10 µM PPQ,0 µM CQ,7.56 pmol oocyte-1 h-1 and 10.37 pmol oocyte-1 h-1 and 9.52 pmol oocyte-1 h-1
same,PfCRTDd2-mediated PPQ transport 10 µM PPQ,25 µM CQ,5.90 pmol oocyte-1 h-1 and 7.56 pmol oocyte-1 h-1 and 12.12 pmol oocyte-1 h-1
same,PfCRTDd2-mediated PPQ transport 10 µM PPQ,50 µM CQ,9.48 pmol oocyte-1 h-1 and 7.04 pmol oocyte-1 h-1 and 8.33 pmol oocyte-1 h-1
same,PfCRTDd2-mediated PPQ transport 10 µM PPQ,125 µM CQ,5.75 pmol oocyte-1 h-1 and 8.54 pmol oocyte-1 h-1 and 9.92 pmol oocyte-1 h-1
same,PfCRTDd2-mediated PPQ transport 10 µM PPQ,200 µM CQ,6.96 pmol oocyte-1 h-1 and 8.23 pmol oocyte-1 h-1 and 6.73 pmol oocyte-1 h-1
same,PfCRTDd2-mediated PPQ transport 10 µM PPQ,400 µM CQ,6.34 pmol oocyte-1 h-1 and 7.80 pmol oocyte-1 h-1 and 6.93 pmol oocyte-1 h-1
same,PfCRTDd2-mediated PPQ transport 50 µM PPQ,0 µM CQ,28.14 pmol oocyte-1 h-1 and 21.87 pmol oocyte-1 h-1 and 89.78 pmol oocyte-1 h-1 and 46.28 pmol oocyte-1 h-1 and 30.01 pmol oocyte-1 h-1 and 33.33 pmol oocyte-1 h-1
same,PfCRTDd2-mediated PPQ transport 50 µM PPQ,25 µM CQ,38.92 pmol oocyte-1 h-1 and 37.28 pmol oocyte-1 h-1 and 39.83 pmol oocyte-1 h-1
same,PfCRTDd2-mediated PPQ transport 50 µM PPQ,50 µM CQ,39.65 pmol oocyte-1 h-1 and 31.99 pmol oocyte-1 h-1 and 26.06 pmol oocyte-1 h-1
same,PfCRTDd2-mediated PPQ transport 50 µM PPQ,125 µM CQ,26.33 pmol oocyte-1 h-1 and 27.41 pmol oocyte-1 h-1 and 34.41 pmol oocyte-1 h-1
same,PfCRTDd2-mediated PPQ transport 50 µM PPQ,200 µM CQ,26.27 pmol oocyte-1 h-1 and 27.81 pmol oocyte-1 h-1 and 32.81 pmol oocyte-1 h-1
same,PfCRTDd2-mediated PPQ transport 50 µM PPQ,400 µM CQ,19.16 pmol oocyte-1 h-1 and 25.87 pmol oocyte-1 h-1 and 24.41 pmol oocyte-1 h-1
same,PfCRTDd2-mediated PPQ transport 100 µM PPQ,0 µM CQ,59.97 pmol oocyte-1 h-1 and 33.72 pmol oocyte-1 h-1 and 64.52 pmol oocyte-1 h-1
same,PfCRTDd2-mediated PPQ transport 100 µM PPQ,25 µM CQ,49.79 pmol oocyte-1 h-1 and 57.28 pmol oocyte-1 h-1 and 48.06 pmol oocyte-1 h-1
same,PfCRTDd2-mediated PPQ transport 100 µM PPQ,50 µM CQ,52.12 pmol oocyte-1 h-1 and 55.31 pmol oocyte-1 h-1 and 42.70 pmol oocyte-1 h-1
same,PfCRTDd2-mediated PPQ transport 100 µM PPQ,125 µM CQ,58.54 pmol oocyte-1 h-1 and 43.73 pmol oocyte-1 h-1 and 42.26 pmol oocyte-1 h-1
same,PfCRTDd2-mediated PPQ transport 100 µM PPQ,200 µM CQ,53.47 pmol oocyte-1 h-1 and 42.58 pmol oocyte-1 h-1 and 43.06 pmol oocyte-1 h-1
same,PfCRTDd2-mediated PPQ transport 100 µM PPQ,400 µM CQ,44.21 pmol oocyte-1 h-1 and 36.58 pmol oocyte-1 h-1 and 41.48 pmol oocyte-1 h-1
same,PfCRTDd2-mediated PPQ transport 200 µM PPQ,0 µM CQ,87.13 pmol oocyte-1 h-1 and 109.05 pmol oocyte-1 h-1 and 57.84 pmol oocyte-1 h-1
same,PfCRTDd2-mediated PPQ transport 200 µM PPQ,25 µM CQ,75.61 pmol oocyte-1 h-1 and 76.21 pmol oocyte-1 h-1 and 79.18 pmol oocyte-1 h-1
same,PfCRTDd2-mediated PPQ transport 200 µM PPQ,50 µM CQ,78.47 pmol oocyte-1 h-1 and 73.08 pmol oocyte-1 h-1 and 76.77 pmol oocyte-1 h-1
same,PfCRTDd2-mediated PPQ transport 200 µM PPQ,125 µM CQ,74.89 pmol oocyte-1 h-1 and 84.24 pmol oocyte-1 h-1 and 63.70 pmol oocyte-1 h-1
same,PfCRTDd2-mediated PPQ transport 200 µM PPQ,200 µM CQ,63.70 pmol oocyte-1 h-1 and 74.56 pmol oocyte-1 h-1 and 71.51 pmol oocyte-1 h-1
same,PfCRTDd2-mediated PPQ transport 200 µM PPQ,400 µM CQ,58.65 pmol oocyte-1 h-1 and 62.98 pmol oocyte-1 h-1 and 61.98 pmol oocyte-1 h-1
same,PfCRTDd2-mediated PPQ transport 300 µM PPQ,0 µM CQ,90.42 pmol oocyte-1 h-1 and 110.91 pmol oocyte-1 h-1 and 77.44 pmol oocyte-1 h-1
same,PfCRTDd2-mediated PPQ transport 300 µM PPQ,25 µM CQ,75.46 pmol oocyte-1 h-1 and 93.24 pmol oocyte-1 h-1 and 86.36 pmol oocyte-1 h-1
same,PfCRTDd2-mediated PPQ transport 300 µM PPQ,50 µM CQ,67.98 pmol oocyte-1 h-1 and 93.33 pmol oocyte-1 h-1 and 91.69 pmol oocyte-1 h-1
same,PfCRTDd2-mediated PPQ transport 300 µM PPQ,125 µM CQ,84.14 pmol oocyte-1 h-1 and 87.90 pmol oocyte-1 h-1 and 73.92 pmol oocyte-1 h-1
same,PfCRTDd2-mediated PPQ transport 300 µM PPQ,200 µM CQ,93.36 pmol oocyte-1 h-1 and 73.07 pmol oocyte-1 h-1 and 56.74 pmol oocyte-1 h-1 and 73.66 pmol oocyte-1 h-1
same,PfCRTDd2-mediated PPQ transport 300 µM PPQ,400 µM CQ,91.78 pmol oocyte-1 h-1 and 67.51 pmol oocyte-1 h-1 and 51.42 pmol oocyte-1 h-1
same,PfCRTDd2-mediated PPQ transport 400 µM PPQ,0 µM CQ,113.37 pmol oocyte-1 h-1 and 109.88 pmol oocyte-1 h-1 and 74.49 pmol oocyte-1 h-1
same,PfCRTDd2-mediated PPQ transport 400 µM PPQ,25 µM CQ,93.45 pmol oocyte-1 h-1 and 86.08 pmol oocyte-1 h-1 and 106.77 pmol oocyte-1 h-1
same,PfCRTDd2-mediated PPQ transport 400 µM PPQ,50 µM CQ,86.04 pmol oocyte-1 h-1 and 73.87 pmol oocyte-1 h-1 and 103.05 pmol oocyte-1 h-1
same,PfCRTDd2-mediated PPQ transport 400 µM PPQ,125 µM CQ,77.98 pmol oocyte-1 h-1 and 81.70 pmol oocyte-1 h-1 and 88.40 pmol oocyte-1 h-1
same,PfCRTDd2-mediated PPQ transport 400 µM PPQ,200 µM CQ,78.64 pmol oocyte-1 h-1 and 88.68 pmol oocyte-1 h-1 and 77.87 pmol oocyte-1 h-1
same,PfCRTDd2-mediated PPQ transport 400 µM PPQ,400 µM CQ,83.22 pmol oocyte-1 h-1 and 67.13 pmol oocyte-1 h-1 and 69.51 pmol oocyte-1 h-1
same,PfCRTDd2-mediated PPQ transport 500 µM PPQ,0 µM CQ,118.94 pmol oocyte-1 h-1 and 82.44 pmol oocyte-1 h-1 and 112.35 pmol oocyte-1 h-1
same,PfCRTDd2-mediated PPQ transport 500 µM PPQ,25 µM CQ,95.67 pmol oocyte-1 h-1 and 107.56 pmol oocyte-1 h-1 and 100.57 pmol oocyte-1 h-1
